Experimental data published in patent USRE47245E1, “Pro-angiogenic peptides and uses thereof” (Susavion Biosciences, Inc., priority 2006, dated 2019).
Where no end group is shown, it is not given here.

Legend:
[1] = system: peripheral blood mononuclear cells (PBMCs); assay: Regulation of cytokine release: cytokine antibody array on medium of PBMC cultures; assay type: cell-based, human
Method: To determine whether the peptides regulate induction or inhibition of release of cytokines, cultured peripheral blood mononuclear cells (PBMCs) were treated with one peptide embodiment of the invention and, after 4 hour incubation, the medium was collected and assayed for changes in the amounts of 40 different cytokines. The peptide construct containing four copies of WNSTL (SEQ ID NO:1), illustrated in FIG. 2A, was added at a concentration of 100 nM in each of the assays. The PBMC cultures were established with cells from Cellular Technology, Ltd. (Shaker Heights, Ohio). Approximately 3 million cells of frozen human PBMCs were thawed at 37° C. and transferred to a 50 mL conical tube where 8 mL of wash medium were added slowly. Then an additional 8 mL were added and swirled to mix. The cells were then centrifuged at 330 g for 10 min, the supernatant was removed and the pellet was resuspended in 10 mL wash medium and centrifuged as above. The washed cells were then resuspended in RPMI 1640 medium containing 10% FBS to about 6 million cells per mL and 100 μL of the suspension were added into each well of a 96-well microtiter plate and incubated overnight at 37° C. in humidified 5% CO2. After 24 hr, the medium was replaced with 200 μL fresh RPMI 1640 medium containing 10% FBS and incubated at 37° C. in humidified 5% CO2 for 2 days. For the data shown in TABLE 1, an aliquot of the peptide construct was added to samples in duplicate at a final concentration of 5 nM or 100 nM and incubated at 37° C. in humidified 5% CO2 for 4 hr. For other experiments (data not included), the incubation was continued for 24 hr. The medium was then removed and stored at […]. The samples were analyzed for production of cytokines. One set of control cells was not treated with an experimental agent. A second set of control cells was treated with LPS, the agent commonly used to induce production of a variety of inflammatory cytokines.
Assays of cytokine levels in samples of culture media were performed using methods developed by RayBiotech, Inc. (Norcross, Ga.). In this technology, membrane arrays of antibodies against cytokines were incubated with samples of media. After washing, the array was incubated with a cocktail of all antibodies tagged with biotin. The membrane was then washed free of unbound antibodies and incubated with streptavidin labeled with a fluorescent dye. After a final wash, the membrane arrays were read in a fluorescence detector and the intensities of the spots quantitated to obtain relative values.
One set of control samples was not treated with peptide and a second set of control samples was treated with lipopolysaccharide (LPS) in the absence of the peptide construct. The structure of the construct is illustrated in FIG. 2A. […] The decrease in IL-8 concentration in the peptide-treated sample, as compared with the amount of IL-8 in the sample treated with the proto-typical inflammatory agent LPS, is particularly notable. […] The increase in the proangiogenic PDGF-BB and the decrease in the inflammatory IL-8, without concomitant stimulation of inflammation, are of particular importance with respect to wound healing. […]

[2] = system: 786-0 human renal cell adenocarcinoma cell line; assay: Pro-angiogenic activity: growth of xenograft tumor in nude mouse; assay type: in vivo, nude mouse (nu/nu); conditions: 0.05 nmole/gm subcutaneously on alternate days; tumor weight estimated from volume
Method: Tumors require vascularization to obtain nutrients to support growth. Therefore, stimulation of growth of a tumor in response to administration of a construct of this invention is an indication of angiogenesis. For this example, a xenograph model system with the nude mouse (nu/nu) was used to determine the effect of peptide on growth of 786-0 human renal cell adenocarcinoma cell line injected into the flank of a mouse so as to induce a tumor. After the tumor was established, peptide was injected subcutaneously on alternate days. The weight of the tumor was estimated by calculation of the volume.
FIG. 4 illustrates data resulting from assays for pro-angiogenic activity for one embodiment of the invention. […] The peptide was also assayed in combination with Sorafenib, an anti-angiogenic drug.

[3] = system: macrophages in PBMC cultures; assay: Stimulation of phagocytosis: macrophages engulfing microspheres opsonized with anti-HIV antibodies; assay type: cell-based, human; conditions: PBMC cultures pretreated; control cultures 0 to 3 beads
Method: The activity of the peptides to stimulate phagocytosis was assessed by the ability of macrophages to engulf microspheres opsonized with anti-HIV antibodies. A biotin-tagged peptide epitope of a surface protein of HIV-1 was bound to streptavidin on the surface of the beads. An antibody preparation that was raised against this epitope was then bound to the HIV peptide. The beads were then washed and presented to PBMC cultures pretreated with peptides. Macrophages in cultures not treated with peptides had little, if any, phagocytic activity. In multiple control cultures, the number of beads within a macrophage-like cell ranged from 0 to 3. In the cultures treated with peptide constructs containing four copies of the peptide sequences WNSTL (SEQ ID NO:1), NQHTPR (SEQ ID NO:2), or VQATQS (SEQ ID NO:8), an average of 10 beads were counted in each phagocytic cell, with no substantial difference between peptide constructs.

[4] = PBMCs in serum, 4 hr, construct 100 nM

“WNSTL: branched construct: four copies of core sequence WNSTL, each via GGGS linker on tri-lysine framework, C-terminal amide (also: four copies, each via GGGS linker on tri-lysine framework, C-terminal amide of construct)” was tested. Which “decrease in concentration of several cytokines as compared to untreated control samples” value ([1]; 4 hr) did it give?
The value was “more than a two-fold decrease”.

What about the “Relative concentration of Eotaxin-2” value [1, 4] of the same substance?
The value was 109.

And the “Relative concentration of GCSF” value [1, 4]?
Its value is 50.

What about the “Relative concentration of ICAM-1” value [1, 4] of the same substance?
The value was 44.

What about the “Relative concentration of IFN-γ” value [1, 4] of the same substance?
Its value is 103.

And the “Relative concentration of IL-1β” value [1, 4]?
Its value is 120.

And the “Relative concentration of IL-4” value [1, 4]?
The value was 97.

And the “Relative concentration of IL-6sR” value [1, 4]?
Its value is 32.

And the “Relative concentration of IL-7” value [1, 4]?
Its value is 93.

And the “Relative concentration of IL-8” value [1, 4]?
The value was 144.

What about the “Relative concentration of IL-10” value [1, 4] of the same substance?
The value was 43.

What about the “Relative concentration of IL-11” value [1, 4] of the same substance?
Its value is 49.

And the “Relative concentration of IL-12p40” value [1, 4]?
Its value is 228.

And the “Relative concentration of IL-12p70” value [1, 4]?
Its value is 131.

And the “Relative concentration of MCP-1” value [1, 4]?
Its value is 968.

What about the “Relative concentration of PDGF-BB” value [1, 4] of the same substance?
The value was 159.

What about the “Relative concentration of RANTES” value [1, 4] of the same substance?
The value was 145.

What about the “Relative concentration of TIMP-2” value [1, 4] of the same substance?
The value was 25.

And the “Relative concentration of sTNF RI” value [1, 4]?
Its value is 78.

And the “cytokines induced to higher concentrations: PDGF-BB, IL-1β, IL-4, IL-1, IL-12 and RANTES” value ([1]; compared to untreated controls, 4 hr)?
Its value is “more than two-fold higher”.

And the “relative IL-6 concentration” value ([1]; in one experiment, untreated control 98)?
Its value is 93.

And the “growth of the tumor enhanced over the control, factor” value [2]?
The value was 1.7.

What about the “average beads counted in each phagocytic cell” value [3] of the same substance?
The value was 10 beads.
